Measurements published in patent US11261189B2, “Substituted 2,4 diamino-quinoline as new medicament for fibrosis, autophagy and cathepsins B (CTSB), L (CTSL) and D (CTSD) related diseases” (Genoscience Pharma, priority 2018, dated 2022).
Entries after “also recorded” stand apart in the source; their conditions may differ. Where a name gives a salt, the structure may show the parent alone.

Key:
[1] = tested on: diethyl nitrosamine (DEN) cirrhotic rat model of liver fibrosis; experiment: DEN induced cirrhosis in rats, study 1: Sirius red quantification of liver fibrosis; assay type: in vivo; conditions: 6 weeks after 14 weeks DEN
Source text: This animal model allows developing an extensive liver fibrosis, leading to a compensated liver cirrhosis with a multifocal hepatocarcinoma (HCC) after 14 weeks of induction (Schiffer, E. et al. Hepatology 2005 (41), 307-314). The DEN cirrhotic rat animal model was used here as a specific animal model of liver fibrosis.
Forty two Fisher 344 male rat (obtained from Charles River Laboratories France, including spare animals), weighting approximately 280 g at the start of the study, were randomized in 5 groups of 8 (groups 1, 2, 3 and 5) or 6 (group 4) animals and housed with 3 animals per cage, given free access to food and water and allowed to acclimate for at least 5 days prior to test initiation.
The DEN cirrhotic rat model was obtained after 14 weekly intraperitoneal injections of DEN (intra-peritoneal injections (i.p.) of DEN at 50 mg/kg/week). The animals were then treated according to Table 9 during 6 weeks. In this in vivo experiment, the anti-fibrotic activity of compound 2-3 was evaluated in liver fibrosis animal model, alone or in combination with Sorafenib (a multikinase inhibitor of Raf-1, B-Raf, VEGFR-2, VEGFR3, PDGFRβ, Flt3 and c-Kit). After 6 weeks of treatment, all animals were sacrificed using CO2 and rat livers were collected for analysis. The quantification of the liver fibrotic tissue was evaluated by Sirius red staining of rat liver sections.
Group 1 contained 8 animals which were daily dosed (q.d.) by oral gavage (per os, p.o.) with the vehicle during 6 weeks.
Group 2 contained 8 animals which were daily dosed (q.d.) by oral gavage (per os, p.o.) with Sorafenib at 10 mg/kg/day during 6 weeks.
Group 3 contained 8 animals which were daily dosed (q.d.) by oral gavage (per os, p.o.) with compound 2-3 at 15 mg/kg/day during 6 weeks.
Group 4 contained 6 animals which were daily dosed (q.d.) by oral gavage (per os, p.o.) with compound 2-3 at 15 mg/kg/day in combination with Sorafenib at 10 mg/kg/day during 6 weeks.
Group 5 contained 8 animals which were daily dosed (q.d.) by oral gavage (per os, p.o.) with compound 2-3 at 30 mg/kg/day during 6 weeks. […]

[2] = tested on: autophagy flux (LC3-II) in Huh7 cell line; experiment: Autophagy flux, LC3-II immunoblot with/without Bafilomycin, Huh7 cell line; assay type: cell-based; conditions: 4 hours and 24 hours of treatment
Protocol: Since compound 2-3 induced an inhibition of the proteolytic activity of cathepsins B, D and/or L (see example 1) supporting an inhibition of some lysosomal functions which can affect the cellular autophagy flux, the capacity of compound 2-3 to modulate the cellular autophagy processes and functions was evaluated in two Hepatocellular carcinoma (HCC) cell lines: Huh7 and HepG2. For this purpose, the accumulation of LC3-II (Light Chain 3 phosphatidylethanolamine conjugate) in presence or absence of compound 2-3 was analyzed using immunoblot analysis of LC3-II.
The HepG2 cell line was maintained in DMEM low glucose (Cat #21885025, ThermoFischer) containing 1% penicillin-streptomycin (Cat #P06-07100, Dutscher) and 10% FBS (Cat #SV30160.03C, Dutscher). The Huh7 cell line was maintained in DMEM high glucose (Cat #L0103-500, Dutscher) containing 1% penicillin-streptomycin (Cat #P06-07100, Dutscher) and 10% SVF (Cat #SV30160.03C, Dutscher). Cells lines were cultured at 37° C. with 5% CO2.
The day before the experiment, 6-well plates with 250,000 cells for HepG2 and 310,000 cells for Huh7 in 1.8 mL of medium per well were prepared. […]
After 4 hours and 24 hours of cells treatment, the medium was removed from each well. […] Total protein concentration was assessed using the BCA reagent (Cat #23227, ThermoFischer) and cellular lysates were stored at −80° C. until western-blot analysis. […]

CC(C)(C)NC1CCN(c2cc(NCc3ccc(Cl)cc3)nc3ccccc23)CC1 [2-3, 2-(4-chlorobenzylamino)-4-(4-tert-butylaminopiperidin-1-yl)-quinoline Hydrochloride Salt]
reduction of the level of collagen fibers deposition (Sirius red) compared to the control group ([1]; group 3: 15 mg/kg/day p.o. q.d., p<0.05): 41.0%
reduction of the level of collagen fibers deposition (Sirius red) compared to the control group ([1]; group 5: 30 mg/kg/day p.o. q.d., p=0.01): 45.3%
accumulation of the LC3-II form [2]: significantly induced, in a dose-dependent manner, an accumulation of the LC3-II form
autophagy flux (LC3-II Baf+/Baf− ratio) ([2]; Hydrochloride Salt): inhibition; also recorded: inhibitor of the autophagy flux
